From US11957684B2, “Treatment of heavy menstrual bleeding associated with uterine fibroids” (Sumitomo Pharma Switzerland GmbH, priority 2016, dated 2024)

Tests used:
[1] = system: women with uterine fibroids; experiment: Example 10: safety
Description: Secondary endpoints for safety included: Adverse events (AEs), vital signs, weight, standard 12-lead electrocardiogram (ECG), clinical laboratory tests, BMD, biochemical bone metabolism markers (serum N-telopeptide [NTELOP] and bone specific alkaline phosphatase [BAP])

women with endometriosis = experiment: Example 7: bone mineral density and serum hormones; assay type: in vivo, human; details: for percent change of bone mineral density from baseline: 12 wk; for week from which median serum estradiol was below LLQ: Compound 1 40 mg, leuprolide acetate 3.75 mg/4 wk
Text: Subjects were diagnosed with endometriosis within the 5 years before screening and had dysmenorrhea and pelvic pain, of which either 1 or both was at least “moderate” as determined by the investigator using the Biberoglu & Behrman (B&B) scale. […] Secondary endpoints included VAS score for pelvic pain, dysmenorrhea, and dyspareunia during the treatment period.

[2] = system: LH, FSH, estradiol (E2), progesterone (P), CA125; experiment: Example 8A: serum LH, FSH, E2, P and CA125; assay type: in vivo, human; details: for week at which median serum E2 decreased to LLQ: Compound 1 40 mg, leuprolide acetate 3.75 mg/4 wk
Description: Study participants were premenopausal (≥20 years) Japanese women with endometriosis (EM)-associated pain who completed a preceding 12-week study and were eligible to continue for an additional 12-week treatment were enrolled. The participants has confirmed normal regular menstrual cycles (25 to 38 days per cycle) and diagnosed to have EM and EM-related dysmenorrhea and pelvic pain of at least moderate severity as determined by the physician B&B scale. The primary endpoint was the safety including assessment of change in bone mineral density (BMD) using dual energy x-ray absorptiometry, adverse events, vital signs, weight, 12-lead electrocardiograms, and clinical laboratory tests. […] Baseline characteristics were similar between randomized patients and all patients who entered the extension study.

uterine fibroids = experiment: Example 10 phase 3 study versus leuprorelin in uterine fibroids: efficacy; assay type: in vivo, human; details: between Week 6 and Week 12
Description: Subjects were aged 20 years or older inclusive, with uterine fibroids. […] The number of sites for this study was approximately 40.
The leuprorelin subjects were administered 1.88 mg leuprorelin, 3.75 mg leuprorelin, or placebo subcutaneously once every 4 weeks. The duration of treatment for both groups was 24 weeks, and the follow-up period was 4 weeks.
Assessment included answers to the uterine fibroid symptom and quality of life questionnaire provided in FIGS. 3A-3C; answers to the work productivity and activity impairment questionnaire: general health provided in FIGS. 66A-66B; clinical laboratory tests for hematology, chemistries, urinalysis, hormone, and biochemical bone metabolism markers.

CONC(=O)Nc1ccc(-c2sc3c(c2CN(C)C)c(=O)n(-c2ccc(OC)nn2)c(=O)n3Cc2c(F)cccc2F)cc1 [Compound 1, N-(4-(1-(2,6-difluorobenzyl)-5-((dimethylamino)methyl)-3-(6-methoxy-3-pyridazinyl)-2,4-dioxo-1,2,3,4-tetrahydrothieno[2,3-d]pyrimidin-6-yl)phenyl)-N′-methoxyurea]
AE: Arthralgia ([1]; 24 wk): 8(5.8) n(%)
AE: Bone density decreased ([1]; 24 wk): 6(4.3) n(%)
AE: Bone resorption test abnormal ([1]; 24 wk): 7(5.1) n(%)
AE: Dizziness ([1]; 24 wk): 9(6.5) n(%)
AE: Gamma-glutamyl transferase increased ([1]; 24 wk): 7(5.1) n(%)
AE: Genital haemorrhage ([1]; 24 wk): 7(5.1) n(%)
AE: Headache ([1]; 24 wk): 21(15.2) n(%)
AE: Hot flush ([1]; 24 wk): 59(42.8) n(%)
AE: Hyperhidrosis ([1]; 24 wk): 13(9.4) n(%)
AE: Malaise ([1]; 24 wk): 8(5.8) n(%)
AE: Menorrhagia ([1]; 24 wk): 34(24.6) n(%)
AE: Metrorrhagia ([1]; 24 wk): 68(49.3) n(%)
AE: Resorption bone increased ([1]; 24 wk): 7(5.1) n(%)
AE: Somnolence ([1]; 24 wk): 7(5.1) n(%)
AE: Viral upper respiratory tract infection ([1]; 24 wk): 39(28.3) n(%)
AEs Leading to Study Drug Discontinuation ([1]; 24 wk): 9(6.5) n(%)
Deaths ([1]; 24 wk): 0(0.0) n(%)
SAEs Leading to Study Drug Discontinuation ([1]; 24 wk): 0(0.0) n(%)
Serious Treatment-Emergent AEs ([1]; 24 wk): 0(0.0) n(%)
Serious Treatment-Emergent AEs, Not Related ([1]; 24 wk): 0(0.0) n(%)
Serious Treatment-Emergent AEs, Related ([1]; 24 wk): 0(0.0) n(%)
Treatment-Emergent AEs ([1]; 24 wk): 131(94.9) n(%)
Treatment-Emergent AEs, Not Related ([1]; 24 wk): 11(8.0) n(%)
Treatment-Emergent AEs, Related ([1]; 24 wk): 120(87.0) n(%)
AE leading to discontinuation: Abdominal pain ([1]; in vivo): 0(0.0) n(%)
AE leading to discontinuation: Arthralgia ([1]; in vivo): 1(0.7) n(%)
AE leading to discontinuation: Back pain ([1]; in vivo): 0(0.0) n(%)
AE leading to discontinuation: Blood pressure increased ([1]; in vivo): 0(0.0) n(%)
AE leading to discontinuation: Depression ([1]; in vivo): 1(0.7) n(%)
AE leading to discontinuation: Drug eruption ([1]; in vivo): 0(0.0) n(%)
AE leading to discontinuation: Fatigue ([1]; in vivo): 1(0.7) n(%)
AE leading to discontinuation: Headache ([1]; in vivo): 1(0.7) n(%)
AE leading to discontinuation: Hot flush ([1]; in vivo): 4(2.9) n(%)
AE leading to discontinuation: Hypertension ([1]; in vivo): 0(0.0) n(%)
AE leading to discontinuation: Malaise ([1]; in vivo): 1(0.7) n(%)
AE leading to discontinuation: Nausea ([1]; in vivo): 0(0.0) n(%)
AE leading to discontinuation: Pyrexia ([1]; in vivo): 0(0.0) n(%)
AE leading to discontinuation: Tenosynovitis ([1]; in vivo): 1(0.7) n(%)
AE leading to discontinuation: Tenosynovitis stenosans ([1]; in vivo): 1(0.7) n(%)
ALP > 3 × ULN ([1]; in vivo): 0 (0.0) n (%)
ALT > 3 × ULN ([1]; in vivo): 3 (2.2) n (%)
ALT > 5 × ULN ([1]; in vivo): 1 (0.7) n (%)
ALT and AST > 3 × ULN ([1]; in vivo): 2 (1.4) n (%)
ALT or AST > 3 × ULN with Tbili > 2 × ULN ([1]; in vivo): 0 (0.0) n (%)
AST > 3 × ULN ([1]; in vivo): 2 (1.4) n (%)
AST > 5 × ULN ([1]; in vivo): 0 (0.0) n (%)
Any Markedly Abnormal LFT ([1]; in vivo): 3 (2.2) n (%)
percent change of bone mineral density from baseline (women with endometriosis; 10 mg): −0.95±1.875%
percent change of bone mineral density from baseline (women with endometriosis; 20 mg): −1.34±2.087%
percent change of bone mineral density from baseline (women with endometriosis; 40 mg): −2.08±2.220%
week from which median serum estradiol was below LLQ (women with endometriosis): 2 Week
median change in serum E2 from baseline ([2]; 10 mg, Week 24): 1.0 pg/mL
median change in serum FSH from baseline ([2]; 10 mg, Week 24): −0.630 mIU/mL
median change in serum LH from baseline ([2]; 10 mg, Week 24): 0.300 mIU/mL
median change in serum progesterone (P) from baseline ([2]; 10 mg, Week 24): 0.000 ng/mL
subjects with CA125 less than or equal to 35 U/mL ([2]; 10 mg, Week 24): 75.3%
median change in serum E2 from baseline ([2]; 20 mg, Week 24): -9.0 pg/mL
median change in serum FSH from baseline ([2]; 20 mg, Week 24): −0.990 mIU/mL
median change in serum LH from baseline ([2]; 20 mg, Week 24): −0.785 mIU/mL
median change in serum progesterone (P) from baseline ([2]; 20 mg, Week 24): 0.005 ng/mL
subjects with CA125 less than or equal to 35 U/mL ([2]; 20 mg, Week 24): 81.1%
median change in serum E2 from baseline ([2]; 40 mg, Week 24): -39.0 pg/mL
median change in serum FSH from baseline ([2]; 40 mg, Week 24): −3.550 mIU/mL
median change in serum LH from baseline ([2]; 40 mg, Week 24): −2.480 mIU/mL
median change in serum progesterone (P) from baseline ([2]; 40 mg, Week 24): -0.080 ng/mL
subjects with CA125 less than or equal to 35 U/mL ([2]; 40 mg, Week 24): 88.5%
week at which median serum E2 decreased to LLQ [2]: 2 Week
proportion of subjects with a PBAC <10 (uterine fibroids): 82.2%

CCNC(=O)[C@@H]1CCCN1C(=O)[C@H](CCCNC(=N)N)NC(=O)[C@H](CC(C)C)NC(=O)[C@@H](CC(C)C)NC(=O)[C@H](Cc1ccc(O)cc1)NC(=O)[C@H](CO)NC(=O)[C@H](Cc1c[nH]c2ccccc12)NC(=O)[C@H](Cc1c[nH]cn1)NC(=O)[C@@H]1CCC(=O)N1 [leuprolide acetate, reference compound]
Deaths ([1]; 24 wk): 0(0.0) n(%)
week from which median serum estradiol was below LLQ (women with endometriosis): 4 Week
mean estradiol serum concentration four weeks after discontinuation (women with endometriosis; FIG. 162, relative to control (placebo)): only about one-fifth of the control
median change in serum E2 from baseline ([2]; 3.75 mg sc/4 wk, Week 24): -40.0 pg/mL
median change in serum FSH from baseline ([2]; 3.75 mg sc/4 wk, Week 24): −2.730 mIU/mL
median change in serum LH from baseline ([2]; 3.75 mg sc/4 wk, Week 24): −3.140 mIU/mL
median change in serum progesterone (P) from baseline ([2]; 3.75 mg sc/4 wk, Week 24): -0.070 ng/mL
percent change from baseline in CA125 concentration ([2]; 3.75 mg sc/4 wk, Week 24): −54.15±46.359%
subjects with CA125 less than or equal to 35 U/mL ([2]; 3.75 mg sc/4 wk, Week 24): 88.9%
week at which median serum E2 decreased to LLQ [2]: 4 Week
proportion of subjects with a PBAC <10 (uterine fibroids): 83.1%
